From US10689430B2, “Insulin receptor partial agonists” (Merck Sharp & Dohme Corp., priority 2016, dated 2020)

Target: T1, human IR(B) (Homo sapiens, UniProt P06213)
T1 construct: expressed in transfected cells; host or cells: CHO cells (membrane preparation)
Experiment: Insulin receptor binding assay (SPA, 125[I]-insulin competition)
Settings: cell membranes from CHO cells overexpressing human IR(B)
Method: Cell membranes were prepared in 50 mM Tris buffer, pH 7.8 containing 5 mM MgCl2.

T1 sequence (P06213 28-758 limits assumed): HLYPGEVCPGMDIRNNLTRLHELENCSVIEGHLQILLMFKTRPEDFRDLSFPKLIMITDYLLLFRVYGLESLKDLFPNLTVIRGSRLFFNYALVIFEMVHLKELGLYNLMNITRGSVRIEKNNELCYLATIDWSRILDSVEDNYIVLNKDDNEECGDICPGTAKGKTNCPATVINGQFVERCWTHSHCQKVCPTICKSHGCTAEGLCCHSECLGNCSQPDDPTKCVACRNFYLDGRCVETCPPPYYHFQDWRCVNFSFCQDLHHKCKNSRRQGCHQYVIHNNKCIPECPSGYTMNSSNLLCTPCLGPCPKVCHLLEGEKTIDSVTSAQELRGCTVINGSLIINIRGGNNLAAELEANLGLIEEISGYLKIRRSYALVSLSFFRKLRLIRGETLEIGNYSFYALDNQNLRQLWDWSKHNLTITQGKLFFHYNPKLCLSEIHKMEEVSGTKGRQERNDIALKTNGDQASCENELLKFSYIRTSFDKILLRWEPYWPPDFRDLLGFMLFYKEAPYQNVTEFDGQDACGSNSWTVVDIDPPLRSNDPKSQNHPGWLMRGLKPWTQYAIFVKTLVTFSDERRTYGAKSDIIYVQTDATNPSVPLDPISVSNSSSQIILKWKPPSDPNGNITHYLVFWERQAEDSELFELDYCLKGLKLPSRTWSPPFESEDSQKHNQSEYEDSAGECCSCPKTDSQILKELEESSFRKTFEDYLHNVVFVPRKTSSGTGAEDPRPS
T1 sequence (P06213 763-1382 partner limits assumed): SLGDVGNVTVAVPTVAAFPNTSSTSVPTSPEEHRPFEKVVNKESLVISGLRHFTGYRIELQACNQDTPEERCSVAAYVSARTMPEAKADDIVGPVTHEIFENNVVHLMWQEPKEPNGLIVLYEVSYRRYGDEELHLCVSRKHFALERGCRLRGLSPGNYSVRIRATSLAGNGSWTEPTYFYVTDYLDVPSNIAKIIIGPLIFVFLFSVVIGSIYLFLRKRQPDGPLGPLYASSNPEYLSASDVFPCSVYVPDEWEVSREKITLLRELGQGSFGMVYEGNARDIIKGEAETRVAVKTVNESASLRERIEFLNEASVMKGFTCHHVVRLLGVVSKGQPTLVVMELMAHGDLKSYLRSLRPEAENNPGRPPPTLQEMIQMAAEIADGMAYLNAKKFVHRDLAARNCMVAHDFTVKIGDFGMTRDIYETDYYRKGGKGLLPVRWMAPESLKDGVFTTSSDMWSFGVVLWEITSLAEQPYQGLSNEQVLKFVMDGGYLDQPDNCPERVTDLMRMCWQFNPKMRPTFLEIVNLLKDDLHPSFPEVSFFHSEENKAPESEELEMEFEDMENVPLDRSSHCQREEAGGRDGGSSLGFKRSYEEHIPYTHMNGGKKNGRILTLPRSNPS

- IC50: 1.8 nM
Substance: N^6,B29, N^6,B29′-(C3-tartaric acid-C3)insulin human [Dimer 85]
